Measured values published in patent US6387936B1 (Aventis Pharma S.A., priority 1998, dated 2002).
Several values for one entry are separate records, joined by “and”; a condition that tells them apart may be missing. Equal entries are not always repeated.

What was measured:
[1] = test system: parkinsonian marmosets (MPTP); assay: Dyskinesic score in MPTP-treated marmosets under chronic L-DOPA; type: in vivo, Callithrix jacchus; parameters: Total dyskinesic score, individual values / Total dyskinesic score, Average ± S.E.M.: scale not given here; conditions: for Total dyskinesic score, Average ± S.E.M. / Total dyskinesic score, individual values: L-DOPA alone (Group 1 controls, sucrose); for Total dyskinesic score, individual values: marmosets 1-3
Protocol: The marmosets have free access to water and have available each day 35 g of food rich in carbohydrates, proteins and vitamins mixed with water, milk and sugar and also fresh fruit.
All the animals receive 3 injections of 2 mg/kg of MPTP by the subcutaneous route, on days 1, 7 and 32. On day 32, the animals are divided into 2 groups.
The dyskinesic score is determined according to a number of parameters and each with a different degree of intensity: […]

[2] = test system: parkinsonian marmosets (MPTP); assay: Locomotory activity of MPTP-treated parkinsonian marmosets (image analyser, small/medium/large movements); type: in vivo, Callithrix jacchus; parameters: Locomotory activity, small movements / Locomotory activity, small movements, Average ± S.E.M. / Locomotory activity, medium movements / Locomotory activity, large movements / Time passed in moving, small movements: unit not given here; conditions: for Time passed in moving, large movements, Average ± S.E.M. / Time passed in moving, medium movements, Average ± S.E.M. / Time passed in moving, small movements, Average ± S.E.M. / Time passed in moving, small movements / Time passed in moving, medium movements / Time passed in moving, large movements: 30 min after 1st daily L-DOPA
Protocol: On day 32, the animals are divided into 2 groups. […] The locomotory activity is determined by placing the animals in test cages (50 cm×83 cm×77 cm) which are equipped with 3 […] onto which the animals can jump as well as a Plexiglas door in front of which is placed a camera. […] The image is digitalized with a 800×600 definition with 256 levels of grey and the changes in pixels from one image to another are counted. This allows the locomotory activity to be classified into small, medium or large movements. […] The locomotory activity of the animals is measured during the exploration phase, that is to say immediately after they are placed in the test cage.

[3] = day 57 after 1st MPTP, 30 min after 1st daily L-DOPA
[4] = day 57 after 1st MPTP, 2 h after 1st daily L-DOPA
[5] = day 60 after 1st MPTP, 30 min after 1st daily L-DOPA
[6] = day 60 after 1st MPTP, 2 h after 1st daily L-DOPA
[7] = day 67 after 1st MPTP, 30 min after 1st daily L-DOPA
[8] = day 67 after 1st MPTP, 2 h after 1st daily L-DOPA
[9] = day 104 after 1st MPTP, 30 min after 1st daily L-DOPA
[10] = day 104 after 1st MPTP, 2 h after 1st daily L-DOPA
[11] = 30 min after the 1st administration of L-DOPA (25 mg/kg p.o.), Group 1, all intervals of 1 h
[12] = 30 min after the 1st administration of L-DOPA (25 mg/kg p.o.), Group 1 marmosets 1-3, interval 11-20 min
[13] = 30 min after the 1st administration of L-DOPA (25 mg/kg p.o.), Group 1 marmosets 1-3, interval 31-40 min
[14] = 30 min after the 1st administration of L-DOPA (25 mg/kg p.o.), Group 1 marmosets 1-3, interval 41-50 min
[15] = 30 min after the 1st administration of L-DOPA (25 mg/kg p.o.), Group 1 marmosets 1-3, interval 51-60 min
[16] = L-DOPA alone (Group 1, sucrose), 10 days after L-DOPA, in s (unit assumed)
[17] = L-DOPA alone (Group 1, sucrose), 20 days after L-DOPA, in s (unit assumed)
[18] = riluzole 2 × 10 mg/kg + L-DOPA (Group 2), 10 days after L-DOPA
[19] = riluzole 2 × 10 mg/kg + L-DOPA (Group 2), 10 days after L-DOPA, marmosets 4-6, interval 21-30 min, 10 mg/kg, in s (unit assumed)
[20] = riluzole 2 × 10 mg/kg + L-DOPA (Group 2), 10 days after L-DOPA, marmosets 4-6, interval 31-40 min, 10 mg/kg, in s (unit assumed)
[21] = riluzole 2 × 10 mg/kg + L-DOPA (Group 2), 10 days after L-DOPA, marmosets 4-6, interval 51-60 min, 10 mg/kg, in s (unit assumed)
[22] = riluzole 2 × 10 mg/kg + L-DOPA (Group 2), 20 days after L-DOPA, in s (unit assumed)
[23] = riluzole 2 × 10 mg/kg + L-DOPA (Group 2), 20 days after L-DOPA, marmosets 4-6, interval 1-10 min, 10 mg/kg, in s (unit assumed)

Structure (SMILES): N[C@@H](Cc1ccc(O)c(O)c1)C(=O)O [L-DOPA, 3-(3,4-dihydroxyphenyl)-L-alanine]
- Total dyskinesic score, Average ± S.E.M. [1, 3]: 6.7 ± 2.1
- Total dyskinesic score, individual values [1, 3]: 4 and 11 and 5
- Total dyskinesic score, Average ± S.E.M. [1, 4]: 6.0 ± 2.1
- Total dyskinesic score, individual values [1, 4]: 3 and 10 and 5
- Total dyskinesic score, Average ± S.E.M. [1, 5]: 9.0 ± 2.5
- Total dyskinesic score, individual values [1, 5]: 4 and 11 and 12
- Total dyskinesic score, Average ± S.E.M. [1, 6]: 8.3 ± 2.32
- Total dyskinesic score, individual values [1, 6]: 4 and 9 and 12
- Total dyskinesic score, Average ± S.E.M. [1, 7]: 10 ± 3.0
- Total dyskinesic score, individual values [1, 7]: 4 and 14 and 12
- Total dyskinesic score, Average ± S.E.M. [1, 8]: 10 ± 3.0
- Total dyskinesic score, individual values [1, 8]: 4 and 13 (2×)
- Total dyskinesic score, Average ± S.E.M. [1, 9]: 11 ± 3.8
- Total dyskinesic score, individual values [1, 9]: 4 and 17 and 2
- Total dyskinesic score, Average ± S.E.M. [1, 10]: 11 ± 3.0
- Total dyskinesic score, individual values [1, 10]: 5 and 17 and 12
- Dyskinesias (in words) ([1]; repeated L-DOPA 25 mg/kg oral, 3 times per day, days 57, 60, 67 and 104, maximum effect on day 104): produce dyskinesias
- Locomotory activity, large movements, Average ± S.E.M. [2, 11]: 334 + 23
- Locomotory activity, medium movements, Average ± S.E.M. [2, 11]: 226 ± 13
- Locomotory activity, small movements, Average ± S.E.M. [2, 11]: 40 ± 16
- Locomotory activity, medium movements ([2]; 30 min after the 1st administration of L-DOPA (25 mg/kg p.o.), Group 1 marmosets 1-3, interval 1-10 min): 250 and 235 and 270
- Locomotory activity, large movements [2, 12]: 350 and 385 and 275
- Locomotory activity, medium movements [2, 12]: 240 and 190 and 290
- Locomotory activity, large movements ([2]; 30 min after the 1st administration of L-DOPA (25 mg/kg p.o.), Group 1 marmosets 1-3, interval 21-30 min): 490 and 370 and 375
- Locomotory activity, large movements [2, 13]: 290 and 230 and 335
- Locomotory activity, medium movements [2, 13]: 255 and 355 and 205
- Locomotory activity, large movements [2, 14]: 425 and 295 and 420
- Locomotory activity, medium movements [2, 14]: 165 and 260
- Locomotory activity, large movements [2, 15]: 350 and 330 and 365
- Locomotory activity, medium movements [2, 15]: 215 and 240 and 200
- Locomotory activity, small movements [2, 15]: 35 and 30
- Effect on locomotory activity (in words) ([2]; L-DOPA after repeated treatment of 10 days and of 20 days): does not have or has little beneficial effect on the locomotory activity
- Time passed in moving, large movements, Average ± S.E.M. [2, 16]: 171 ± 48
- Time passed in moving, medium movements, Average ± S.E.M. [2, 16]: 160 ± 23
- Time passed in moving, small movements, Average ± S.E.M. [2, 16]: 269 ± 47
- Time passed in moving, small movements ([2]; L-DOPA alone (Group 1, sucrose), 10 days after L-DOPA, marmosets 1-3, interval 51-60 min): 205 and 225 and 240
- Time passed in moving, medium movements ([2]; L-DOPA alone (Group 1, sucrose), 10 days after L-DOPA, marmosets 1-3, interval 51-60 min, in s (unit assumed)): 165 and 305 and 235
- Time passed in moving, large movements, Average ± S.E.M. [2, 17]: 283 ± 50
- Time passed in moving, medium movements, Average ± S.E.M. [2, 17]: 235 ± 37
- Time passed in moving, small movements, Average ± S.E.M. [2, 17]: 83 ± 19
- Effect on locomotory activity (in words) ([2]; acute administration of L-DOPA 25 mg/kg, 15 days after the 3rd injection of MPTP): increases the locomotory activity by decreasing the small movements and increasing the large movements

Structure (SMILES): Nc1nc2ccc(OC(F)(F)F)cc2s1 [riluzole, 2-amino-6-trifluoromethoxybenzo-thiazole]
- Effect on locomotory activity (in words) ([2]; riluzole 10 mg/kg oral, twice per day for 72 days, after 10 and 20 days of treatment with L-DOPA): capable of improving the locomotory activity
- Time passed in moving, large movements, Average ± S.E.M. [2, 18]: 410 ± 25^+++
- Time passed in moving, small movements, Average ± S.E.M. [2, 18]: 57 ± 16^+++
- Time passed in moving, medium movements, Average ± S.E.M. ([2]; riluzole 2 × 10 mg/kg + L-DOPA (Group 2), 10 days after L-DOPA, in s (unit assumed)): 134 ± 13
- Time passed in moving, small movements ([2]; riluzole 2 × 10 mg/kg + L-DOPA (Group 2), 10 days after L-DOPA, marmosets 4-6, interval 1-10 min): 5
- Time passed in moving, large movements ([2]; riluzole 2 × 10 mg/kg + L-DOPA (Group 2), 10 days after L-DOPA, marmosets 4-6, interval 1-10 min, 10 mg/kg, in s (unit assumed)): 560 and 495 and 520
- Time passed in moving, large movements ([2]; riluzole 2 × 10 mg/kg + L-DOPA (Group 2), 10 days after L-DOPA, marmosets 4-6, interval 11-20 min, 10 mg/kg, in s (unit assumed)): 565 and 455 and 370
- Time passed in moving, large movements [2, 19]: 540 and 355 and 435
- Time passed in moving, medium movements [2, 19]: 60 and 120 and 115
- Time passed in moving, large movements [2, 20]: 460 and 240 and 385
- Time passed in moving, medium movements [2, 20]: 140 and 215 and 190
- Time passed in moving, medium movements ([2]; riluzole 2 × 10 mg/kg + L-DOPA (Group 2), 10 days after L-DOPA, marmosets 4-6, interval 41-50 min, 10 mg/kg, in s (unit assumed)): 155 and 205 and 175
- Time passed in moving, large movements [2, 21]: 430 and 265 and 310
- Time passed in moving, medium movements [2, 21]: 135 and 125 and 190
- Time passed in moving, medium movements, Average ± S.E.M. ([2]; riluzole 2 × 10 mg/kg + L-DOPA (Group 2), 20 days after L-DOPA): 148 ± 13^+
- Time passed in moving, large movements, Average ± S.E.M. [2, 22]: 365 ± 37
- Time passed in moving, small movements, Average ± S.E.M. [2, 22]: 67 ± 30
- Time passed in moving, large movements [2, 23]: 445 and 335 and 490
- Time passed in moving, medium movements [2, 23]: 155 and 140 and 80
- Time passed in moving, medium movements ([2]; riluzole 2 × 10 mg/kg + L-DOPA (Group 2), 20 days after L-DOPA, marmosets 4-6, interval 51-60 min, 10 mg/kg, in s (unit assumed)): 90 and 180 and 105
